Results as given in patent US9012674B1, “Ethyl (2R)-2-acetamido-3-(4-methylbenzoylsulfanyl)propanoate and uses thereof” (Promentis Pharmaceuticals, Inc., priority 2013, dated 2015).

Experiments:
[1] = system: human glial cells from brain astrocytoma (1321N1); experiment: 3H-glutamate release in human astrocytoma cell culture; assay type: cell-based; conditions: 300 μM (most effective concentration); at 3 hours; versus untreated control
Procedure: This assay also uses the cell culture system of human glial cells from brain astrocytoma (1321N1) described above. Initially, cells are washed with HBBSS, and ^3H-glutamate is added (PerkinElmer: 1 mCi/mL stock solution is diluted (30 μL+500 μL HBBSS) and 10 μL of diluted radiolabel is added to each well). Following a 1 hour incubation to load the cells with the labeled glutamate, the cells are washed again with HBBSS, and the drug is added. At 30, 90, and 180 minutes, 50 μL of extracellular media is sampled from each well and is measured using a Beckman LS 6500 scintillation counter.
Results of the ^14C-cystine uptake and ^3H-glutamate release by astrocytes treated with differing concentrations of Pro-4051, are presented in FIG. 1, as a percentage of the untreated control. […] This graph represents an average of three experiments run.

[2] = system: human glial cells from brain astrocytoma (1321N1); experiment: 14C-cystine uptake in human astrocytoma cell culture; assay type: cell-based; conditions: 100 μM (most effective concentration); three hour incubation; versus untreated control; average of three experiments
Procedure: The goal of these experiments was to determine ^14C-cystine uptake. The experiments were conducted as follows.
The screening of the compound was performed using an in vitro culture system of human glial cells from brain astrocytoma (1321N1). Cells were plated on 24 well plates coated with poly-D-lysine and laminin and grown in a balanced salt solution supplemented with 5% heat inactivated horse serum, 5% fetal bovine serum, 2 mM glutamine and glucose (total 21 mM). Cultures were maintained in humidified 5% CO2 incubators at 37° C. for 3-4 days before experiments were performed, at this time the cultures has formed a single confluent layer. For experiments, cultures were washed 3 times into a Na-free HEPES and HCO3^− buffered balanced salt solution. After 1 hour the test compounds are added. Following a three hour incubation, ^14C-cystine (0.025 mCi/mL) was then added for 20 minutes. Following the ^14C-cystine exposure, cultures were washed 3 times with ice cold HEPES buffered saline solution and dissolved in 250 μl sodium dodecyl sulfate (0.1%). An aliquot (200 μl) was removed and added to scintillation fluid for counting. Values were normalized to ^14C-cystine uptake in untreated controls on the same experimental plate. […]

Solubility data = assay type: physicochemical; conditions: according to solubility data; read-out: concentration above which compound is not in solution (solubility)

Q: With `CCOC(=O)[C@H](CSC(=O)c1ccc(C)cc1)NC(C)=O` [Pro-4051, ethyl (2R)-2-acetamido-3-(4-methylbenzoylsulfanyl)propanoate] as the compound, how does the “increase in 3H-glutamate release” value [1] read?
A: The value was “approximately 100%”.

Q: What about the “decrease in 14C-cystine uptake” value [2] of the same compound?
A: The value was “approximately 28%”.

Q: What about the solubility (Solubility data) of the same compound?
A: The solubility was at most 316 µM.
